Measurements reported in patent US20250052744A1, “Dyes and Uses Thereof” (The University of Liverpool, priority 2021, published 2025).

Legend:
Assay in all cases: Qualitative dye staining on agarose pads (EVOS M7000)
Format in all cases: cell-based
Set-up in all cases: key to Relative fluorescent intensity: Very high: If the cells looked twice as big in the fluorescent channel, it was marked as having “very high” relative fluorescent intensity; High: if the cells looked bigger in the fluorescent channel, it was marked as having “high” relative fluorescent intensity; Medium: If the cells looked almost the same size in the fluorescent channel and the bright field, it was marked as having “medium” relative fluorescent intensity; Low: If the cells looked smaller in the fluorescent channel as compared to the brightfield but still the whole cell was visible, it was marked as having “low” relative fluorescent intensity; Negligible: If only a few traces of a cell was visible in the fluorescent channel, it was marked as having “negligible” relative fluorescent intensity
Conditions in all cases: DiSC3(5) 3 μM, SYBR Green I 10×, SYTO 13 3 μM, FM4-64 15 μM
Proteus mirabilis = tested on: Proteus mirabilis
Proteus vulgaris = tested on: Proteus vulgaris
Streptococcus agalactiae = tested on: Streptococcus agalactiae
[1] = Table 7 commercial strain Proteus mirabilis NCTC 10975
[2] = Table 7 commercial strain Proteus mirabilis NCTC 11938
[3] = Table 8 sample Proteus mirabilis (021)
[4] = Table 8 sample Proteus mirabilis (022)
[5] = Table 8 sample Proteus mirabilis (023)
[6] = Table 8 sample Proteus vulgaris (024)
[7] = Table 8 sample Proteus vulgaris (025)
[8] = Table 8 sample Proteus vulgaris (026)
[9] = Table 6 thresholds, Streptococcus agalactiae
[10] = Table 7 commercial strain Streptococcus agalactiae NCTC 11239
[11] = Table 8 sample Streptococcus agalactiae (081)
[12] = Table 8 sample Streptococcus agalactiae (082)
[13] = Table 8 sample Streptococcus agalactiae (083)

| SMILES | Percentage of cells stained (Proteus mirabilis; [1]) | Relative fluorescent intensity (Proteus mirabilis; [1]) | Percentage of cells stained (Proteus mirabilis; [2]) | Relative fluorescent intensity (Proteus mirabilis; [2]) | Percentage of cells stained (Proteus mirabilis; [3]) | Relative fluorescent intensity (Proteus mirabilis; [3]) | Percentage of cells stained (Proteus mirabilis; [4]) | Relative fluorescent intensity (Proteus mirabilis; [4]) | Percentage of cells stained (Proteus mirabilis; [5]) | Relative fluorescent intensity (Proteus mirabilis; [5]) | Percentage of cells stained (Proteus vulgaris; [6]) | Relative fluorescent intensity (Proteus vulgaris; [6]) | Percentage of cells stained (Proteus vulgaris; [7]) | Relative fluorescent intensity (Proteus vulgaris; [7]) | Percentage of cells stained (Proteus vulgaris; [8]) | Relative fluorescent intensity (Proteus vulgaris; [8]) | Percentage of cells stained (Streptococcus agalactiae; [9]) | Relative fluorescent intensity (Streptococcus agalactiae; [9]) | Percentage of cells stained (Streptococcus agalactiae; [10]) | Relative fluorescent intensity (Streptococcus agalactiae; [10]) | other results |
| --- | --- | --- | --- | --- | --- | --- | --- | --- | --- | --- | --- | --- | --- | --- | --- | --- | --- | --- | --- | --- | --- |
| CCCN1C(=CC=CC=Cc2sc3ccccc3[n+]2CCC)Sc2ccccc21.[I-] [DiSC3(5), 3,3′-Dipropylthiadicarbocyanine Iodide] | Almost all | Medium | Almost all | Low | Almost all | Low | Almost all | Medium | Almost all | Medium | Almost all | Low | Few | Medium | Almost all | Low | Almost all | low and Low | Almost all | Low | Percentage of cells stained (Streptococcus agalactiae; [11]): Almost all; Relative fluorescent intensity (Streptococcus agalactiae; [11]): Low; Percentage of cells stained (Streptococcus agalactiae; [12]): Almost all; Relative fluorescent intensity (Streptococcus agalactiae; [12]): Low; Percentage of cells stained (Streptococcus agalactiae; [13]): Almost all; Relative fluorescent intensity (Streptococcus agalactiae; [13]): Low |
| CCN(CC)c1ccc(C=CC=CC=Cc2cc[n+](CCC[N+](CC)(CC)CC)cc2)cc1.[Br-].[Br-] [FM 4-64, N-(3-Triethylammoniumpropyl)-4-(6-(4-(Diethylamino) Phenyl) Hexatrienyl) Pyridinium Dibromide] | Few | Negligible | Few | Negligible | Few | Negligible | Few | Negligible | Few | Negligible | Few | Negligible | Few | Negligible | Few | Negligible | Almost all | High | Almost all | High | Percentage of cells stained (Streptococcus agalactiae; [11]): Almost all; Relative fluorescent intensity (Streptococcus agalactiae; [11]): High; Percentage of cells stained (Streptococcus agalactiae; [12]): Almost all; Relative fluorescent intensity (Streptococcus agalactiae; [12]): High; Percentage of cells stained (Streptococcus agalactiae; [13]): Almost all; Relative fluorescent intensity (Streptococcus agalactiae; [13]): High |
| CCCN(CCCN(C)C)c1cc(/C=C2/Sc3ccccc3N2C)c2ccccc2[n+]1-c1ccccc1 [SYBR Green I, N′,N′-dimethyl-N-[4-[(E)-(3-methyl-1,3-benzothiazol-2-ylidene)methyl]-1-phenylquinolin-1-ium-2-yl]-N-propylpropane-1,3-diamine] | Half | Low | Half | Low | Half | Low | Half | Low | Half | Low | Half | Low | Half | Low | Almost all | Low | Almost all | very high | Almost all | Very high | Relative fluorescent intensity (Streptococcus agalactiae; Table 6 thresholds, Streptococcus agalactiae, listed as SYBR Green): Very high; Percentage of cells stained (Streptococcus agalactiae; [11]): Almost all; Relative fluorescent intensity (Streptococcus agalactiae; [11]): Very high; Percentage of cells stained (Streptococcus agalactiae; [12]): Almost all; Relative fluorescent intensity (Streptococcus agalactiae; [12]): Very high; Percentage of cells stained (Streptococcus agalactiae; [13]): Almost all; Relative fluorescent intensity (Streptococcus agalactiae; [13]): Very high |
